Assay results: patent US8877683B2, “Substituted pyridines having herbicidal activity” (BASF SE, priority 2010, dated 2014)

Assays:
Assay in all cases: greenhouse post-emergence herbicidal test
Format in all cases: in vivo
Conditions in all cases: application rate 0.25 kg/ha
AVEFA (Avena fatua) = system: AVEFA (Avena fatua)
Text: (§1) The culture containers used were plastic flowerpots containing loamy sand with approximately 3.0% of humus as the substrate. The seeds of the test plants were sown separately for each species.
(§2) For the post-emergence treatment, the test plants were first grown to a height of 3 to 15 cm, depending on the plant habit, and only then treated with the active ingredients which had been suspended or emulsified in water. For this purpose, the test plants were either sown directly and grown in the same containers, or they were first grown separately as seedlings and transplanted into the test containers a few days prior to treatment.
(§3) Depending on the species, the plants were kept at 10-25° C. or 20-35° C. The test period extended over 2 to 4 weeks. During this time, the plants were tended, and their response to the individual treatments was evaluated.
(§4) Evaluation was carried out using a scale from 0 to 100. 100 means no emergence of the plants, or complete destruction of at least the aerial moieties, and 0 means no damage, or normal course of growth. A good herbicidal activity is given at values of at least 70 and a very good herbicidal activity is given at values of at least 85.
(§5) The herbicidal activity of the substituted pyridine compounds I-2 and I-13 according to this invention was tested in comparison with the corresponding pyrazine compounds Nos. C-11 and C-19 disclosed on page 48 of WO 2010/130970 (not of the invention). These comparative experiments were performed at an application rate of 0.25 kg/ha in a post-emergence treatment by following the same procedure as described above in the Use Examples. The results of Comparative Examples 1 and 2 are indicated below in Tables II and III.

[1] = system: ECHCG (Echinocloa crus-galli)
Text: as §1, §2, §3, §4, §5

[2] = system: ALOMY (Alopercurus myosuroides)
Text: as §1, §2, §3, §4, §5

[3] = system: CHEAL (Chenopodium album)
Text: as §1, §2, §3, §4, §5

[4] = system: BRSNW (Brassica napus (winter))
Text: as §1, §2, §3, §4, §5

Structure (SMILES) | herbicidal activity against AVEFA (AVEFA (Avena fatua)) | herbicidal activity against ECHGG [1] | herbicidal activity against ALOMY [2] | herbicidal activity against CHEAL [3] | herbicidal activity against BRSNW [4]
O=S1(=O)Cc2cccnc2C(O)=C1c1ccccc1C(F)(F)F [I-2, 6,6-Dioxo-7-(2-trifluoromethyl-phenyl)-5,6-dihydro-thiopyrano[4,3-b]pyridin-8-ol] | very good (a very good herbicidal activity is given at values of at least 85) | very good (a very good herbicidal activity is given at values of at least 85) | very good (a very good herbicidal activity is given at values of at least 85) | – | –
O=S1(=O)Cc2cccnc2C(O)=C1c1c(Cl)cccc1Cl [I-13] | – | very good (a very good herbicidal activity is given at values of at least 85) | – | very good (a very good herbicidal activity is given at values of at least 85) | very good (a very good herbicidal activity is given at values of at least 85)
O=S1(=O)Cc2nccnc2C(O)=C1c1c(Cl)cccc1Cl [reference compound] | – | less than good | – | less than good | good (A good herbicidal activity is given at values of at least 70)
O=S1(=O)Cc2nccnc2C(O)=C1c1ccccc1C(F)(F)F [reference compound] | less than good | less than good | good (A good herbicidal activity is given at values of at least 70) | – | –
CC(C)(C)C(=O)OC1=C(c2ccccc2C(F)(F)F)S(=O)(=O)Cc2cccnc21 [I-8, 2,2-Dimethyl-propionic acid 6,6-dioxo-7-(2-trifluoromethyl-phenyl)-5,6-dihydro-thiopyrano[4,3-b]pyridin-8-yl ester] | – | – | good (A good herbicidal activity is given at values of at least 70) | – | –
